For one series, the target named is T1, PPARα (Homo sapiens, UniProt Q07869).
T1 construct: hPPARα (279aa-580aa); expressed in transfected cells; host or cells: Cos-7
T1 sequence (Q07869 167-468 limits assumed): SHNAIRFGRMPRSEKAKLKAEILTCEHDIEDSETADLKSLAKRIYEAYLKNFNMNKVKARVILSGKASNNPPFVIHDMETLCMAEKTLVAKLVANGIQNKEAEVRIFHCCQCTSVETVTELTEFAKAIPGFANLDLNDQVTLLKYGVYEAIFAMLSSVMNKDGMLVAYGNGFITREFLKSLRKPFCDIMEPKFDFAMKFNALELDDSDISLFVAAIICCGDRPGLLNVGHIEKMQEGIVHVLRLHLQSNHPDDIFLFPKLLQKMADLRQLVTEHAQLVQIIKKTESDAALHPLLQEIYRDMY
Nature of the series: Gal4-PPARα(LBD) reporter gene agonistic activity assay in Cos-7 cells. Format: cell-based. A general note: A reporter such as luciferase makes a cellular process visible.

Another series concerns HepG2 cells. Nature of the series: Lipid metabolism-associated gene expression of HepG2 cells (qPCR). It is filed as cell-based, human. As to conditions: 8 nM, nM, and 200 nM, 12 h, vs. blank control (FIGS. 1 and 2). As for the experimental part:
HepG2 cells (human hepatoma cells) were cultured in a 6-well cell culture plate and subjected to adherent culture overnight. […] The old medium was discarded and replaced with drug-containing medium of different concentrations (complete medium without the compound for the blank control group). After dosing, the cells were incubated for 12 h. The medium was discarded and total RNA was extracted by the phenol-chloroform method. After reverse transcription, the real-time quantitative fluorescent PCR experiment (RNA extraction, reverse transcription, quantitative PCR reagents were all purchased from Nanjing Vazyme Biotech Co., Ltd.) was performed using ACTB as an internal reference, and the expression of PDK4, ACADVL, and CPT1A, which are important genes in oxidative metabolism of lipids, was detected according to the steps in the product instructions (the primer sequences are shown in Table 7). […] Some other compounds of the present invention also have similar activity.

Series [1] in a line: Pharmacokinetic evaluation in mice. It is filed as in vivo, C57BL/6J mice. As to conditions: for AUC(0-inf): read-out: Area under the curve AUC(0-∞); for half-life: read-out: Half-life T1/2 (converted); for Cmax: read-out: Peak concentration Cmax; for Tmax: read-out: Time-to-peak Tmax. From the text:
Animals: 6 male C57BL/6J mice, SPF grade, sourced from the animal repository of Shanghai Medicilon research institution.
Grouping: Mice were divided into 2 groups of 3 mice each, one group was an oral administration group and the other group was an intravenous injection administration group. The dose in the oral administration group was 10 mpk, and the dose in the intravenous injection group was 2 mpk.
Experimental method: After the intravenous injection administration group was subjected to administration by injection via the tail vein, approximately 0.03 mL of blood was collected via the orbit at 0.083 h, 0.25 h, 0.5 h, 1 h, 2 h, 4 h, 8 h, and 24 h, and an ethylenediaminetetraacetic acid dipotassium salt was quickly added for anticoagulation and the blood was placed on ice after the blood collection. The mice in the oral administration group were fasted for 12 h before administration and fed 4 h after administration; after oral administration, approximately 0.03 mL of blood was collected via the orbit at 0.25 h, 0.5 h, 1 h, 2 h, 4 h, 6 h, 8 h, and 24 h, and an ethylenediaminetetraacetic acid dipotassium salt was quickly added for anticoagulation and the blood was placed on ice after the blood collection. All samples were centrifuged at 18,000 g for 7 min in a low-temperature centrifuge, and plasma was isolated. The content of the compound in the plasma was determined by LC-MS/MS-18, and relevant pharmacokinetic parameters were calculated from the plasma concentration data at different time points.

The next series deals with T2, PPARδ (Homo sapiens, UniProt Q03181).
T2 construct: expressed in transfected cells; host or cells: Cos-7
T2 sequence (Q03181 139-441 limits assumed): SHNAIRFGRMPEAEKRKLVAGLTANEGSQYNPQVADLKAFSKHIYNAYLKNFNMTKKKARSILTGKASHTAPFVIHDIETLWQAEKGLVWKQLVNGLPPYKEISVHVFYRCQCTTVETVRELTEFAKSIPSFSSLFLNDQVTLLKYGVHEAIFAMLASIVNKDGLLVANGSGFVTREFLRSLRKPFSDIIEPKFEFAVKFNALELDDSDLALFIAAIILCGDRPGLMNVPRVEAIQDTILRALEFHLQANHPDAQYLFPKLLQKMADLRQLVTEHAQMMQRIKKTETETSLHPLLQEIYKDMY
Nature of the series: Gal4-PPARδ(LBD) reporter gene agonistic activity assay in Cos-7 cells. It is filed as cell-based.

A further series deals with THP1 cells. Nature of the series: LPS-induced inflammation-associated gene expression of THP1 cells (qPCR). Format: cell-based, human. As to conditions: THP1 monocyte-derived macrophages, 8, 40, and 200 nM, 6 h, qPCR (FIG. 3). As for the experimental part: THP1 cells (human monocytes) were cultured in a 6-well cell culture plate in a medium containing 100 ng/mL phorbol ester (purchased from MCE) and stimulated for differentiation for 48 h.
The medium was replaced with a fresh complete medium for the blank control group, the medium was replaced with a complete medium containing […] LPS for the LPS group, and the medium was replaced with 8, 40, and 200 nM drug-containing media prepared with a complete medium containing […] LPS for the administration group. After 6 h of treatment, the medium was discarded. Quantitative PCR was performed according to the procedures in Example 207 to detect the expression of IL6 and IL12B, which are inflammatory factors playing an important role in inflammatory response (the primer sequences are shown in Table 8). […] Some other compounds of the present invention also have similar anti-inflammatory activity.

A short description of series [2]: Metabolic stability in human liver microsomes. It is filed as in vitro ADME. As for the experimental part: A 500 μM solution of the compound in acetonitrile was prepared and diluted to obtain a 1.5 μM drug working solution with a 0.1 M potassium phosphate solution. The drug working solution was co-incubated with a human liver microsome working solution at a final concentration of 0.75 mg/mL and an NADPH solution (final concentration: 550 μM), and the incubation was terminated by adding an acetonitrile solution at 0 min, 15 min, 30 min, 45 min, and 60 min. The residual amount of the compound that remained in the system at each time point was detected by using LC/MS. The absolute value k of the slope was determined by plotting the natural logarithm of the percentage of the residual amount of the compound with the time, and the calculation was performed according to the formula: T1/2 (half-life)=ln2/k=0.693/k.

Where [3] appears, read: male, C57BL/6J, mouse, plasma, 2 mg/kg, intravenous injection, 2 mpk.
Setting [4] is: male, C57BL/6J, mouse, plasma, 10 mg/kg, oral administration, 10 mpk.

The source of these data is patent US20250188044A1 (HARBIN MEDISAN PHARMACEUTICAL CO., LTD., priority 2021, published 2025).

Like-named read-outs stand apart in the source and are kept apart here.

By EC50 is commonly meant the midpoint of the concentration-response curve. A higher EC50 goes with a need for much substance. By Tmax is commonly meant the time at which the peak concentration occurs. In general, bioavailability refers to dose-corrected exposure relative to a reference, in per cent. Consider `Cc1cc(Cn2ncn(-c3ccc(C(F)(F)F)cc3)c2=O)cc(C)c1OC(C)(C)C(=O)O` [Compound 57, 2-(2,6-Dimethyl-4-((5-oxo-4-(4-(trifluoromethyl)phenyl)-4,5-dihydro-1H-1,2,4-triazol-1-yl)methyl)phenoxy)-2-methylpropionic acid], for which the concentration giving a half-maximal response (EC50) at PPARα (Cos-7 cells, Gal4-PPARα(LBD) reporter, 16 h, 100% = GW7647 10 nM) is 26 nM; at PPARδ it was 2 nM. At PPARα (Cos-7 reporter assay), the “agonistic activity for PPARα (EC50 level, in words)” value is reported as “at nanomolar levels”. Besides, the “expression of PDK4, ACADVL, and CPT1A” value in the series on HepG2 cells was “improve the expression of PDK4, ACADVL, and CPT1A in a dose-dependent manner with significance”. In addition, the “pharmacokinetic properties (in words)” value in series [1] is listed as “good pharmacokinetic properties”. Also, the AUC(0-inf) in series [1] (setting [3]) came to 4360 ± 522 ng·h/mL; in series [1] (setting [4]) it was 18600 ± 2760 ng·h/mL. Further, the half-life is 9.53 ± 3.29 h in series [1] (setting [3]); 7.41 ± 2.05 h in series [1] (setting [4]); greater than 2 h in series [2] (human liver microsomes 0.75 mg/mL, NADPH, 0-60 min). The Cmax in series [1] (setting [3]) was determined as 7240 ± 269 ng/mL; in series [1] (setting [4]), 14000 ± 2050 ng/mL. Further, the Tmax turned out to be 0.08 h in series [1] (setting [3]) and 0.25 h in series [1] (setting [4]). In addition, in series [1] (male, C57BL/6J, mouse, plasma, 10 mg/kg, oral administration, 10 mpk, read-out: Bioavailability F), the bioavailability came out at 87.3%. Further, the “agonistic activity for PPARδ (EC50 level, in words)” value at PPARδ (Cos-7 reporter assay) is “at nanomolar levels”. Also, in the series on THP1 cells, the “LPS-induced expression of IL6 and IL12B” value is “resist LPS-induced up-regulation of IL6 and IL12B of macrophages”. For the same compound, in series [2] (human liver microsomes), the “metabolic stability in human liver microsomes (in words)” value is reported as “very good metabolic stability in human liver microsomes”.
